The values that follow come from patent US7456192B2, “3β-amino azabicyclooctane heteroaromatic amid derivatives preparation method and therapeutic uses thereof” (Pierre Fabre Medicament, priority 2001, dated 2008).

The test system of series [1] is methylphenidate-induced behavior. In words: Antagonism of methylphenidate-induced behavior in rats (chewing inhibition, normalization). The class given is in vivo, rat. The procedure: The compounds were tested in vivo (Table II) to measure their ability to antagonize methylphenidate-induced behavior in rats. […] Colpaert J. Pharmacol. Exp. Ther. 267, 181 (1993). This test characterizes the antipsychotic activity in a more in-depth manner than apomorphine effect antagonism, the test conventionally used.

Series [2] concerns the target T1, D2 type central dopaminergic receptor (Homo sapiens, UniProt P14416). The experiment in a line: biochemical.
The nature of series [3]: Cataleptic activity in rats, compound alone without methylphenidate. To be noted: rat, in vivo.
Series [4] deals with T1, D2 type central dopaminergic receptor. The conditions noted are these: radioligand 3H-YM-09151-2.
The next series relates to catalepsy. In words: Cataleptic activity in rats, compound alone without methylphenidate. The conditions noted are these: rat, i.p.; 3 or 5 animals.
[5] abbreviates: Rattus norvegicus, ip, read-out: Chewing inhibition ED50.
[6] abbreviates: Rattus norvegicus, ip, read-out: Normalization ED50.
Setting [7] is: ip, rat, i.p., 3 or 5 animals, read-out: Chewing inhibition ED50.
Setting [8] is: ip, rat, i.p., 3 or 5 animals, read-out: Normalization ED50.
The mark [9] stands for this setting: Rattus norvegicus, po, read-out: Chewing inhibition ED50.
Where [10] appears, read: Rattus norvegicus, po, read-out: Normalization ED50.

Where a name gives a salt, the structure may show the parent alone. Read-outs that look alike come from different tables or passages of the source. Marks after values point to notes of the source that are not given here.

T1 sequence (P14416 whole entry): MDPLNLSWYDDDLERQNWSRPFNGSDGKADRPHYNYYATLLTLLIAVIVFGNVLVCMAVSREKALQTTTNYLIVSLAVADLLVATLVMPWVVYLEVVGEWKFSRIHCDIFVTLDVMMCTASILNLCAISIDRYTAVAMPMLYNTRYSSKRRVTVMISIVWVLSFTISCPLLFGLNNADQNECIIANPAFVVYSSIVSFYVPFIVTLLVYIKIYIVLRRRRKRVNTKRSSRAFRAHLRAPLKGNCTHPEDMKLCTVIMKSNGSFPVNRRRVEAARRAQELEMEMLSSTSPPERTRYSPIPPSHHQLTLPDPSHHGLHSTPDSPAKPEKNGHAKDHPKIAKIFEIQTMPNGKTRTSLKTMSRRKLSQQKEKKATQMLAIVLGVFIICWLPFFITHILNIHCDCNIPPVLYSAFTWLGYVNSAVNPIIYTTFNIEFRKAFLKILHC

What is called ED50 is the midpoint of the dose-response relation. For orientation: Ki means the equilibrium dissociation constant of an inhibitor or competing ligand from its target. A lower Ki goes with a stronger hold on the target. For the molecule `CSc1c(C(=O)N[C@@H]2C[C@H]3CC[C@@H](C2)N3Cc2ccccc2)sc2ncccc12` [Example 2, 3-Methylsulfanylthieno[2,3-b]pyridine-2-carboxylic acid (8-benzyl-8-azabicyclo[3.2.1]oct-3β-yl)amide hydrochloride], the ED50 turned out to be 0.08 mg/kg in series [1] (setting [5]), 0.56 mg/kg in series [1] (setting [6]) and 1.8 mg/kg in series [3] (ip). Also, in series [2], the Ki was 0.447 nM.

Regarding `COc1cccc(C(=O)N[C@@H]2C[C@H]3CC[C@@H](C2)N3Cc2ccccc2)c1OC` [Tropapride, reference compound], the “D2 affinity (pKi)” value in series [4] is reported as 10.02. In series [1] (rat, i.p., 3 or 5 animals), the “Chewing inhibition ED50” value was 0.0059^a mg/kg and the “Normalization ED50” value is reported as 0.017^a mg/kg. The “Catalepsy ED50” value in the series with catalepsy is 0.015^a mg/kg.

Take `O=C(CCCN1CCC(O)(c2ccc(Cl)cc2)CC1)c1ccc(F)cc1` [Haloperidol, reference compound]: the figures for the ED50 in series [1] (setting [7]), in series [1] (setting [8]) and in series [3] (ip) were 0.08 mg/kg, 0.32 mg/kg and 0.32 mg/kg, respectively.

In the case of `COc1c(C(=O)N[C@@H]2C[C@H]3CC[C@@H](C2)N3Cc2ccc(Cl)cc2)sc2ncccc12` [Example 8, 3-Methoxythieno[2,3-b]pyridine-2-carboxylic acid [8-(4-chlorobenzyl)-8-azabicyclo[3.2.1]oct-3β-yl]amide hydrochloride], the median effective dose (ED50) in series [1] (setting [5]) was 0.1 mg/kg; in series [1] (setting [6]), 1.3 mg/kg; in series [3] (ip), more than 40 mg/kg. Also, the affinity in series [2] corresponds to a Ki of 1.74 nM.

With `COc1c(C(=O)N[C@@H]2C[C@H]3CC[C@@H](C2)N3Cc2ccccc2)oc2cccnc12` [Example 4, 3-Methoxyfuro[3,2-b]pyridine-2-carboxylic acid (8-benzyl-8-azabicyclo[3.2.1]oct-3β-yl)amide dihydrochloride], the ED50 in series [1] (setting [5]) is 0.12 mg/kg; in series [1] (setting [6]), 0.98 mg/kg; in series [3] (ip), more than 40 mg/kg. For the same molecule, the Ki in series [2] was 2.04 nM.

For the molecule `COc1c(C(=O)N[C@@H]2C[C@H]3CC[C@@H](C2)N3Cc2ccsc2)sc2ncccc12` [Example 12, 3-Methoxythieno[2,3-b]pyridine-2-carboxylic acid [8-thiophen-3-ylmethyl-8-azabicyclo[3.2.1]oct-3β-yl]amide hydrochloride], the median effective dose (ED50) in series [1] (setting [5]) was 1.25 mg/kg; in series [1] (setting [6]) it was 1.25 mg/kg; in series [3] (ip), more than 40 mg/kg. For the same molecule, the inhibition constant (Ki) in series [2] was 2.57 nM.

For `COc1c(C(=O)N[C@@H]2C[C@H]3CC[C@@H](C2)N3Cc2ccccc2)sc2nccnc12` [Example 27, 3-Methoxythieno[2,3-b]pyrazine-2-carboxylic acid (8-benzyl-8-azabicyclo[3.2.1]oct-3β-yl)amide hydrochloride], the ED50 in series [1] (setting [9]) is 0.27 mg/kg; in series [1] (setting [10]), 0.67 mg/kg; in series [3] (po), 9.5 mg/kg. In series [2], this molecule gave an inhibitory constant (Ki) of 0.437 nM.

Regarding `CSc1c(C(=O)N[C@@H]2C[C@H]3CC[C@@H](C2)N3Cc2ccc(Cl)cc2)sc2nccnc12` [Example 31, 3-Methylsulfanylthieno[2,3-b]pyrazine-2-carboxylic acid [8-(4-chlorobenzyl)-8-azabicyclo[3.2.1]oct-3β-yl]amide hydrochloride], the 50% effective dose (ED50) came to 0.31 mg/kg in series [1] (setting [9]), 0.31 mg/kg in series [1] (setting [10]) and 1.25 mg/kg in series [3] (po). Besides, the inhibition constant Ki in series [2] is 2.04 nM.

Turning to `CCN1CCCC1CNC(=O)c1cc(S(N)(=O)=O)ccc1OC` (stereo not shown) [Sulpiride, reference compound], the figures for the ED50 in series [1] (setting [7]), in series [1] (setting [8]) and in series [3] (ip) were more than 40 mg/kg, more than 40 mg/kg and more than 160 mg/kg, respectively.

In the case of `COc1c(C(=O)N[C@@H]2C[C@H]3CC[C@@H](C2)N3CC2CCCCC2)sc2ncccc12` [Example 10, 3-Methoxythieno[2,3-b]pyridine-2-carboxylic acid [8-cyclohexylmethyl-8-azabicyclo[3.2.1]oct-3β-yl]amide fumarate], the median effective dose (ED50) was 1.25 mg/kg in series [1] (setting [5]), 5 mg/kg in series [1] (setting [6]) and more than 40 mg/kg in series [3] (ip). Moreover, affinity in series [2] was put at a Ki of 2.57 nM.

As to `Cc1nc2n(c(=O)c1CCN1CCC(c3noc4cc(F)ccc34)CC1)CCCC2` [Risperidone, reference compound], the median effective dose (ED50) in series [1] (setting [5]) worked out at 0.25 mg/kg; in series [1] (setting [6]) it was 2.8 mg/kg.

Turning to `COc1c(C(=O)N[C@@H]2C[C@H]3CC[C@@H](C2)N3Cc2ccc(F)cc2)sc2ncccc12` [Example 11, 3-Methoxythieno[2,3-b]pyridine-2-carboxylic acid [(8-(4-fluorobenzyl)-8-azabicyclo[3.2.1]oct-3β-yl)]amide hydrochloride], the 50% effective dose (ED50) in series [1] (setting [5]) is 0.08 mg/kg; in series [1] (setting [6]), 0.31 mg/kg; in series [3] (ip), more than 40 mg/kg. Besides, the affinity in series [2], expressed as Ki, was 0.776 nM.

For the molecule `CSc1c(C(=O)N[C@@H]2C[C@H]3CC[C@@H](C2)N3Cc2ccc(F)cc2)sc2nccnc12` [Example 32, 3-Methylsulfanylthieno[2,3-b]pyrazine-2-carboxylic acid [8-(4-fluorobenzyl)-8-azabicyclo[3.2.1]oct-3β-yl]amide hydrochloride], the 50% effective dose (ED50) in series [1] (setting [9]) is 0.08 mg/kg; in series [1] (setting [10]) it was 0.31 mg/kg; in series [3] (po) it was 1.25 mg/kg. For the same molecule, the affinity in series [2], expressed as Ki, was 0.676 nM.

In the case of `COc1c(C(=O)N[C@@H]2C[C@H]3CC[C@@H](C2)N3Cc2ccc(F)cc2)sc2nccnc12` [Example 29, 3-Methoxythieno[2,3-b]pyrazine-2-carboxylic acid [8-(4-fluorobenzyl)-8-azabicyclo[3.2.1]oct-3β-yl]amide hydrochloride], the results for the ED50 in series [1] (setting [9]), in series [1] (setting [10]) and in series [3] (po) were 0.08 mg/kg, 0.32 mg/kg and 5 mg/kg, respectively. The molecule further had an inhibition constant (Ki) in series [2] of 0.661 nM.
